Results reported in patent US4179451A, “Novel hydroxy substituted 15-deoxy-5-cis-prostenoic acids and esters” (American Cyanamid Company, priority 1978, dated 1979).
Where two headings read alike, the source gives them in different places.

What was measured:
[1] = test system: basal gastric acid secretion; experiment: Inhibition of basal gastric acid secretion in the Acute Gastric Fistula Rat; assay type: in vivo, Female Sprague-Dawley rats; conditions: 1 h, intraduodenal 10 mg./kg., after 60 minutes, read-out: % Inhibition of Total Acid or Output
Protocol: Inhibition of basal gastric acid secretion can be determined by the following procedure. Female Sprague-Dawley rats weighing 140-160 grams are fastened in individual cages for 18-24 hours. The rats are then lightly anesthetized with ether and their front teeth extracted to avoid destruction of the plastic cannula. A midline incision is then made and the stomach and duodenum exposed. A flanged polyvinyl tube is inserted into the fundic portion of the stomach and secured with a purse string suture line using 4-O Mersilene. The rat is then dosed by injection of the compound into the duodenum (1.0 ml. per 100 gram body weight). After dosing, the abdominal wall and skin are closed using metal wound clips. The rat is replaced in a cage containing a longitudinal slit to allow the polyvinyl tube to hang freely. An 8 ml. plastic collecting tube is attached to the flanged cannula and hangs freely below the cage. The first 30 minute sample is discarded designating this time as zero. The collecting tube is attached again and samples removed at the end of 60 and/or 120 minutes. The hourly samples are then transferred to a 15 ml. centrifuge and centrifuged for 5-10 minutes. Total and sediment volume are then recorded with supernatent volume being used as volume of secretion. A 1 ml. or less aliquot is then removed and placed in a 50 ml. beaker containing 10 ml. of distilled water. This sample is then titrated using 0.01 N to Na H to pH 7.0 using a Beckman zeromatic pH meter. Volume, titratable acidity (meq/L) and total acid output (μeq/hour) are recorded. Percent inhibition is determined by comparison with the appropriate control. Groups of three rats are used for preliminary testing, and groups of six rats are used for dose-response evaluations. All compounds are administered in a vehicle consisting of 0.5% methocel, 0.4% tween 80, and saline at a constant volume of 1 ml./100 gram rat. Samples are dispersed by sonification. Percent inhibition is calculated on basis of concurrent vehicle control.
In Table III which follows is given the effect on total acid output after 60 minutes of a 10 mg./kg. intraduodenal dose of representative compounds of this invention.

[2] = test system: bronchospasms elicited by 5-hydroxytryptamine; experiment: Bronchodilator Activity (Konzett Assays), 5-hydroxytryptamine; assay type: in vivo, guinea pigs; conditions: Cavia porcellus; three logarithmic cumulative intravenous doses; spasmogen 5-hydroxytryptamine; read-out: ED50, Spasmogenic Agent 5-hydroxytryptamine
Protocol: (§1) The compounds of this invention are useful as bronchodilators for the treatment of asthma and chronic bronchitis. Bronchodilator activity is determined in guinea pigs against bronchospasms elicited by intravenous injections of 5-hydroxytryptamine, histamine or acetylcholine by the Konzett procedure. [See J. Lulling, P. Lievens, F. El Sayed and J. Prignot, Arzneimittel-Forschung, 18, 955 (1968).]
(§2) In Table IV which follows bronchodilator activity for representative compounds of this invention against one or more of three spasmogenic agents is expressed as an ED50 determined from the results obtained with three logarithmic cummulative intravenous doses. In this assay, these compounds of this invention provide an effect of longer duration than does natural l-PGE1 or l-PGE2.

[3] = test system: bronchospasms elicited by histamine; experiment: Bronchodilator Activity (Konzett Assays), histamine; assay type: in vivo, guinea pigs; conditions: Cavia porcellus; three logarithmic cumulative intravenous doses; spasmogen histamine; read-out: ED50, Spasmogenic Agent histamine
Protocol: as §1, §2

[4] = test system: bronchospasms elicited by acetylcholine; experiment: Bronchodilator Activity (Konzett Assays), acetylcholine; assay type: in vivo, guinea pigs; conditions: Cavia porcellus; three logarithmic cumulative intravenous doses; spasmogen acetylcholine; read-out: ED50, Spasmogenic Agent Acetylcholine
Protocol: as §1, §2

[5] = test system: ulcerogenic properties of indomethacin; experiment: protection against the ulcerogenic properties of indomethacin; assay type: in vivo, Rats; conditions: indomethacin 20 mg./kg. s.c., score 0 (normal stomach) to 4, control 3.0
Protocol: The protection against the ulcerogenic properties of indomethacin was determined in the following manner. Rats were starved for 48 hours (water was given ad libitum). Indomethacin (20 mg./kg. of body weight) was administered by the subcutaneous route and one-half the dose of the test compound was administered by gavage at the same time. After three hours, the second half of the test compound was administered also by gavage. Five hours after the administration of indomethacin the animals were decapitated and the stomachs removed. The stomachs were washed with distilled water, blotted on gauze, cut along the larger curvature, and the contents rinsed with distilled water. The stomachs were spread out, pinned on a cork and visualized under magnifying glass for ulcers. The criteria for scoring of ulcers was as previously reported [Abdel-Galil et al. Brit. J. Pharmac. Chemotherapy 33:1-14 (1968)].
1--Petechial hemorrhage or pin point ulcer
3--Many ulcers, a few large
4--Many ulcers, mainly large
A difference of at least 0.7 unit between the scores for control animals (treated with indomethacin but not test compound) and animals treated with indomethacin and test compound is considered indicative of activity from the test compound. […]

[6] = test system: gastric acid secretion; experiment: Gastric acid secretion inhibitory action (Shay rat procedure); assay type: in vivo, rats (male, CFE strain)
[7] = test system: mean arterial blood pressure; experiment: Hypotensive Response (normotensive rat); assay type: in vivo, Male Wistar strain rats; conditions: anesthetized rat
Protocol: This procedure is a modification of the techniques described by Pike et al., Prostaglandins, Nobel Symposium 2, Stockholm, June, 1966; p. 165.
Male Wistar strain rats (Royal Hart Farms) averaging approximately 250 grams in weight were fastened to rat boards in a supine position by means of canvas vests and limb ties. The femoral area was infiltrated subcutaneously with lidocaine and the iliac artery and vein were exposed and cannulated. Arterial blood pressure (systolic/diastolic) was recorded using a Statham P23 Bb pressure transducer-Offner dynograph system. To obtain a stable blood pressure, the animals were anethetized before use with pentobarbital, 30 mg./kg. of body weight intravenously, and also were given hexamethoxium bitartrate, 2 mg./kg. of body weight intravenously. The test compounds were prepared by ultrasonic dispersion in a Saline-Tween 80® vehicle. A constant intravenous dose volume of 0.5 ml. was administered and test doses ranged from 0.1 to 10.0 mg./kg. of body weight.
In Table V below are recorded the percent decrease from normal of mean arterial blood pressure induced by given doses of representative compounds of this invention.

[8] = test system: basal gastric acid secretion; experiment: Inhibition of basal gastric acid secretion in the Acute Gastric Fistula Rat; assay type: in vivo, Female Sprague-Dawley rats; conditions: read-out: % Inhibition of Total Acid or Output; for inhibition in vivo at 2.5 mg/kg: intraduodenal 2.5 mg./kg.; for inhibition in vivo at 0.63 mg/kg: intraduodenal 0.63 mg./kg.
[9] = 1 h, oral dose 10 mg./kg., after 60 minutes

SMILES | inhibition in vivo at 10 mg/kg [1] [%] | ED50 [2] [µg/kg] | ED50 [3] [µg/kg] | ED50 [4] [mg/kg] | further results
CCC/C=C/C(O)C/C=C/[C@H]1[C@H](O)CC(=O)[C@@H]1C/C=C\CCCC(=O)O (relative stereo) [9-oxo-11α,16-dihydroxy-20-methyl-5-cis,13-trans,17-trans-prostatrienoic acid] | 44 | 1.2 | 2.2 | 0.004 | –
CCCCC(C/C=C/[C@H]1[C@H](OC2CCCCO2)CC(=O)[C@@H]1C/C=C\CCCC(=O)O)OC(c1ccccc1)(c1ccccc1)c1ccccc1 (relative stereo) [9-oxo-11α-tetrahydropyranyloxy-16-triphenylmethoxy-5-cis,13-trans-prostadienoic acid] | 68 | – | – | – | –
CCCCC(O)C/C=C/[C@H]1[C@H](O)CC(=O)[C@@H]1C/C=C\CCCC(=O)O (relative stereo) [9-oxo-11α,16-dihydroxy-5-cis; 13-trans-prostadienoic acid] | 69 | 3.6 | 2.1 | 0.0173 | Score treated ([5]; total oral dose 0.39 mg./kg. of body weight): 2.0; Score treated ([5]; total oral dose 0.78 mg./kg. of body weight): 1.0; Percent Inhibition ([6]; subcutaneous dose 0.4 mg./kg.): 35%; Percent Inhibition ([6]; subcutaneous dose 0.8 mg./kg.): 44%; Percent Inhibition ([6]; subcutaneous dose 1.6 mg./kg.): 48%; % Decrease in Mean Arterial Blood Pressure ([7]; intravenous 2.1 mg./kg.): 27%; inhibition in vivo at 2.5 mg/kg ([8]; 1 h, after 60 minutes): 42%
CC/C=C/C(O)C/C=C/[C@H]1C=CC(=O)[C@@H]1C/C=C\CCCC(=O)O (relative stereo) [9-oxo-16-hydroxy-5-cis,10,13-trans,17-trans-prostatetraenoic acid] | 83 | – | – | – | inhibition in vivo at 10 mg/kg [8, 9]: 43%
CCCCCC(/C=C/[C@H]1[C@H](O)CC(=O)[C@@H]1C/C=C\CCCC(=O)O)CO (relative stereo) [9-oxo-11α-hydroxy-15-hydroxymethyl-5-cis,13-trans-prostadienoic acid] | 5 | – | – | – | –
CCCCC(O)C/C=C/[C@H]1C=CC(=O)[C@@H]1C/C=C\CCCC(=O)O (relative stereo) [9-oxo-16-hydroxy-5-cis-10,13-trans-prostatrienoic acid] | 44 | 125 | 81 | 1.54 | –
CCCC(C)C(O)C/C=C/[C@H]1[C@H](O)CC(=O)[C@@H]1C/C=C\CCCC(=O)O (relative stereo) [9-oxo-11α,16-dihydroxy-17-methyl-5-cis,13-trans-prostadienoic acid] | 93 | 1.9 | 0.49 | 0.003 | % Decrease in Mean Arterial Blood Pressure ([7]; intravenous 1.0 mg./kg.): 42%; inhibition in vivo at 10 mg/kg [8, 9]: 89%; inhibition in vivo at 10 mg/kg ([8]; 2 h, oral dose 10 mg./kg., after 120 minutes): 85%
CCCCC(O)C/C=C/[C@@H]1[C@@H](C/C=C\CCCC(=O)O)[C@H](O)C[C@H]1O (relative stereo) [9β,11α,16-trihydroxy-5-cis,13-trans-prostadienoic acid] | – | – | – | – | % Decrease in Mean Arterial Blood Pressure ([7]; intravenous 2.1 mg./kg.): 24%
CCC/C=C/C(O)C/C=C/[C@H]1C=CC(=O)[C@@H]1C/C=C\CCCC(=O)O (relative stereo) [9-oxo-16-hydroxy-20-methyl-5-cis,10,13-trans,17-trans-prostatetraenoic acid] | – | 625 | 369 | 2.28 | –
CCCCC(O)C/C=C/[C@H]1[C@H](O)CC(=O)[C@@H]1C/C=C\CCCC(=O)OC (relative stereo) [methyl 9-oxo-11α,16-dihydroxy-5-cis,13-trans-prostadienoate] | 100 | – | – | – | inhibition in vivo at 0.625 mg/kg ([8]; 1 h, oral dose 0.625 mg./kg., after 60 minutes): 51%; inhibition in vivo at 1.25 mg/kg ([8]; 1 h, oral dose 1.25 mg./kg., after 60 minutes): 75%
CCCC(C)C(O)C/C=C/[C@H]1[C@H](O)CC(=O)[C@@H]1C/C=C\CCCC(=O)OC (relative stereo) [methyl 9-oxo-11α,16-dihydroxy-17-methyl-5-cis,13-trans-prostadienoate] | 76 | – | – | – | % Decrease in Mean Arterial Blood Pressure ([7]; intravenous 1.2 mg./kg.): 42%
CCCCCC(O)C/C=C/[C@H]1[C@H](O)CC(=O)[C@@H]1C/C=C\CCCC(=O)O (relative stereo) [9-oxo-11α,16-dihydroxy-20-methyl-5-cis,13-trans-prostadienoic acid] | 42 | 0.32 | 0.29 | 0.00072 | –
CCCCCCCCCCOC(=O)CCC/C=C\C[C@H]1C(=O)C[C@@H](O)[C@@H]1/C=C/CC(O)CCCC (relative stereo) [decyl 9-oxo-11α,16-dihydroxy-5-cis,13-trans-prostadienoate] | 60 | – | – | – | –
CCCC(C)C(O)C/C=C/[C@@H]1[C@@H](C/C=C\CCCC(=O)O)[C@@H](O)C[C@H]1O (relative stereo) [9α,11α,16-trihydroxy-17-methyl-5-cis,13-trans-prostadienoic acid] | 96 | – | – | – | inhibition in vivo at 0.63 mg/kg ([8]; 1 h, after 60 minutes): 55%; inhibition in vivo at 2.5 mg/kg ([8]; 1 h, after 60 minutes): 66%; inhibition in vivo at 0.63 mg/kg ([8]; 2 h, after 120 minutes): 47%; inhibition in vivo at 2.5 mg/kg ([8]; 2 h, after 120 minutes): 62%; inhibition in vivo at 10 mg/kg ([8]; 2 h, intraduodenal 10 mg./kg., after 120 minutes): 98%
